Among the data in US6150385A, “1,3,4-thiadiazoles useful for the treatment of CMV infections” (Pharmacia & Upjohn Company, priority 1999, dated 2000) are inhibition values, retold here.

This test deals with T1, HCMV polymerase (Human cytomegalovirus, UniProt P08546).
T1 construct: made in house; host or cells: SF-9 insect cells infected with recombinant baculovirus
T1 sequence (P08546 whole entry): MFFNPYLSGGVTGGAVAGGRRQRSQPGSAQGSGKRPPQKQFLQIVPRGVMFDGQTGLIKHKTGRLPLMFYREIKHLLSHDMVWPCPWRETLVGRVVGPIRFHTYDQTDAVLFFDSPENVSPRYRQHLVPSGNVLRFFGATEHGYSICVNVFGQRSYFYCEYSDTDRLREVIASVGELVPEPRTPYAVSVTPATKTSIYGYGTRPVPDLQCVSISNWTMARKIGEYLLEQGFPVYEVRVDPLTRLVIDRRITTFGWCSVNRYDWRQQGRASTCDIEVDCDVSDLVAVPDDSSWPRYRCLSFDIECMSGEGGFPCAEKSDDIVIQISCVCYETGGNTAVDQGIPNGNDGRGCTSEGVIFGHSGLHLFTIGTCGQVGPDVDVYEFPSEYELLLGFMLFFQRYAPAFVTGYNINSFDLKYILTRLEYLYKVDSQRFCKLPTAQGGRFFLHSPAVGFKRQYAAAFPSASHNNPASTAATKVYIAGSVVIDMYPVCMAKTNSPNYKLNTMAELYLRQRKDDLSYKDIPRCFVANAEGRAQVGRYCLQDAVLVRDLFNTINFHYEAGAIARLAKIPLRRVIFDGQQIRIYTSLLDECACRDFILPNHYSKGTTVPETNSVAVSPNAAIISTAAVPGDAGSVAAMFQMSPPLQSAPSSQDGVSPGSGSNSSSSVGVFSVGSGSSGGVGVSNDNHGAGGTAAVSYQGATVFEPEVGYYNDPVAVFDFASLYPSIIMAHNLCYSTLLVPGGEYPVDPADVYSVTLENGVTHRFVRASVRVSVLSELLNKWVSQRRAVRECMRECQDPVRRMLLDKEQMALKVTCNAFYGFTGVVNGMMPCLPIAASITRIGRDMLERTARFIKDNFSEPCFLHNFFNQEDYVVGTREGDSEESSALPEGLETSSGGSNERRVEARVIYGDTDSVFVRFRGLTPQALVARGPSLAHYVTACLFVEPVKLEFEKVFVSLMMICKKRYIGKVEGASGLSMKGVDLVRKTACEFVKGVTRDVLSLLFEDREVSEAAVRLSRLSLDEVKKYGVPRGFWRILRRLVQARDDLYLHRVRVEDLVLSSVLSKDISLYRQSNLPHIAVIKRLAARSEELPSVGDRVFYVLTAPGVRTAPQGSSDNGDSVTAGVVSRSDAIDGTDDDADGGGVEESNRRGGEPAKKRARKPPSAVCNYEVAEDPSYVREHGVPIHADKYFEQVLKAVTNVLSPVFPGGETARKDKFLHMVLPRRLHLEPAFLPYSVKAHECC
As to the kind of experiment: HCMV polymerase assay (scintillation proximity assay). The test is classed as biochemical. The conditions noted are these: percentage of inhibition at 25 μM concentration in CMV polymerase assay. In a few lines:
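Baculovirus/SF-9-expressed HCMV polymerase in 5.4 mM HEPES pH 7.5, 11.7 mM KCl, 4.5 mM MgCl2, 0.36 mg/ml BSA, 90 nM 3H-dTTP, with or without 2 mM CHAPS. Started with 6 nM biotinylated poly(dA)-oligo(dT), 30 min at 25 or 37 °C, EDTA-stopped, read by streptavidin-SPA counting; % inhibition at 25 μM.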
As for `CC(C)c1cc(C(C)C)c(C(=O)Nc2nnc(NCc3ccc(F)cc3)s2)c(C(C)C)c1` [compound 401, N-{5-[(4-fluorobenzyl)amino]-1,3,4-thiadiazol-2-yl}-2,4,6-triisopropylbenzamide], at 25 µM the inhibition was 25.5%.

Take `O=C(Nc1nnc(NCCSc2ccccc2)s1)c1ccc2c(c1)C(=O)OC2=O` [compound 33, 1,3-dioxo-N-(5-{[2-(phenylsulfanyl)ethyl]amino}-1,3,4-thiadiazol-2-yl)-1,3-dihydro-2-benzofuran-5-carboxamide]: the inhibition (commonly the drop in the measured response relative to a control, in per cent) at 25 µM came out at 90.1%.

As to `CCSCCNc1nnc(NC(=O)c2ccc(Br)cc2)s1` [compound 309, 4-bromo-N-(5-{[2-(ethylsulfanyl)ethyl]amino}-1,3,4-thiadiazol-2-yl)benzamide], 25 µM produced 34% inhibition.

Compound `O=C(/C=C/c1ccccc1Cl)Nc1nnc(NCCc2c[nH]c3ccccc23)s1` [compound 268, (E)-3-(2-chlorophenyl)-N-(5-{[2-(1H-indol-3-yl)ethyl]amino}-1,3,4-thiadiazol-2-yl)-2-propenamide] registered an inhibition at 25 µM of 38.7%.

Consider `CCCCCCCC/C=C/CCCCCCCC(=O)Nc1nnc(NCCc2cccs2)s1` [compound 41, (E)-N-(5-{[2-(2-thienyl)ethyl]amino}-1,3,4-thiadiazol-2-yl)-9-octadecenamide], for which testing at 25 µM gave an inhibition of 85.7%.

`NS(=O)(=O)c1ccc(CCNc2nnc(NC(=O)c3c(Cl)cccc3Cl)s2)cc1` [compound 259, N-(5-{[4-(aminosulfonyl)phenethyl]amino}-1,3,4-thiadiazol-2-yl)-2,6-dichlorobenzamide] showed an inhibition at 25 µM of 39.6%.

`O=C(Nc1nnc(NCCc2cccs2)s1)c1ccc(F)cc1F` [compound 445]: the inhibition at 25 µM was found to be 21.9%.

`CCOc1ccc2ccccc2c1C(=O)Nc1nnc(NC2CCCc3ccccc32)s1` (stereo not drawn) [compound 93, 2-ethoxy-N-[5-(1,2,3,4-tetrahydro-1-naphthaienylamino)-1,3,4-thiadiazol-2-yl]-1-naphthamide]: testing at 25 µM gave an inhibition of 66%.

`O=C(Nc1nnc(NCc2cccnc2)s1)c1ccc(Cl)c(Cl)c1` [compound 417, 3,4-dichloro-N-{5-[(3-pyridinylmethyl)amino]-1,3,4-thiadiazol-2-yl}benzamide] showed an inhibition at 25 µM of 24.4%.

As to `CC(C)c1cc(C(C)C)c(C(=O)Nc2nnc(NCc3ccncc3)s2)c(C(C)C)c1` [compound 266, 2,4,6-triisopropyl-N-{5-[(4-pyridinylmethyl)amino]-1,3,4-thiadiazol-2-yl}benzamide], the inhibition at 25 µM was determined as 38.8%.

As for `NS(=O)(=O)c1ccc(CCNc2nnc(NC(=O)/C=C/c3ccccc3)s2)cc1` [compound 50, (E)-N-(5-{[4-(aminosulfonyl)phenethyl]amino}-1,3,4-thiadiazol-2-yl)-3-phenyl-2-propenamide], the inhibition at 25 µM is 79.8%.

`O=C(/C=C/c1ccccc1Cl)Nc1nnc(NC2CCCCCC2)s1` [compound 196, (E)-3-(2-chlorophenyl)-N-[5-(cycloheptylamino) 1,3,4-thiadiazol-2-yl]-2-propenamide]: the inhibition at 25 µM was found to be 46.2%.

For `O=C(Nc1nnc(NCCCNC2CCCCC2)s1)c1cc2ccccc2s1` [compound 62, N-(5-{[3-(cyclohexylamino)propyl]amino}-1,3,4-thiadiazol-2-yl)-1-benzothiophene-2-carboxamide], testing at 25 µM gave an inhibition of 74%.

As for `O=C(Nc1nnc(NC2CCCCCC2)s1)c1ccc([N+](=O)[O-])o1` [compound 104, N-[5-(cycloheptylamino)-1,3,4-thiadiazol-2-yl]-5-nitro-2-furamide], 25 µM produced 64.7% inhibition.

For `COc1ccc(CNc2nnc(NC(=O)c3ccc4c(c3)C(=O)OC4=O)s2)cc1OC` [compound 16, N-{5-[(3,4-dimethoxybenzyl)amino]-1,3,4-thiadiazol-2-yl}-1,3-dioxo-1,3-dihydro-2-benzofuran-5-carboxamide], the inhibition at 25 µM amounted to 98.7%.

As to `CCOc1ccc2ccccc2c1C(=O)Nc1nnc(NCCCCc2ccccc2)s1` [compound 231, 2-ethoxy-N-{5-[(4-phenylbutyl)amino]-1,3,4-thiadiazol-2-yl}-1-naphthamide], the inhibition at 25 µM came out at 42.3%.

In turn, `CCOc1ccc2ccccc2c1C(=O)Nc1nnc(NCc2ccc(S(N)(=O)=O)cc2)s1` [compound 26, N-(5-{[4-(aminosulfonyl)benzyl]amino}-1,3,4-thiadiazol-2-yl)-2-ethoxy-1-naphthamide] returned an inhibition at 25 µM of 93.1%.

Regarding `CC(C)c1cc(C(C)C)c(C(=O)Nc2nnc(NCCN3CCCCC3)s2)c(C(C)C)c1` [compound 232, 2,4,6-triisopropyl-N-{5-[(2-piperidinoethyl)amino]-1,3,4-thiadiazol-2-yl}benzamide], the inhibition at 25 µM was determined as 42.2%.

On to `CC(C)(C)CNc1nnc(NC(=O)/C=C/c2ccccc2Cl)s1` [compound 319, (E)-3-(2-chlorophenyl)-N-[5-(neopentylamino)-1,3,4-thiadiazol-2-yl]-2-propenamide], for which testing at 25 µM gave an inhibition of 33.5%.

In turn, `CCCCCCCC/C=C/CCCCCCCC(=O)Nc1nnc(NC2CCN(C(=O)OCC)CC2)s1` [compound 91, ethyl 4-({5-[(E)-9-octadecenoylamino]-1,3,4-thiadiazol-2-yl}amino)tetrahydro-1(2H)-pyridinecarboxylate] registered an inhibition at 25 µM of 66.1%.

Compound `N#Cc1ccc(C(=O)Nc2nnc(NCCN3CCOCC3)s2)cc1` [compound 464, 4-cyano-N-{5-[(2-morpholinoethyl)amino]-1,3,4-thiadiazol-2-yl}benzamide] had an inhibition at 25 µM of 20.3%.

The compound `COc1ccccc1C(=O)Nc1nnc(NCCCNC2CCCCC2)s1` [compound 387, N-(5-{[3-(cyclohexylamino)propyl]amino}-1,3,4-thiadiazol-2-yl)-2-methoxybenzamide] displayed an inhibition at 25 µM of 26.8%.

Turning to `N#Cc1ccc(C(=O)Nc2nnc(NCCCCc3ccccc3)s2)cc1` [compound 143, 4-cyano-N-{5-[(4-phenylbutyl)amino]-1,3,4-thiadiazol-2-yl}benzamide], the inhibition at 25 µM was 55.4%.

The compound `COc1ccccc1C(=O)Nc1nnc(NC2CCCc3ccccc32)s1` (stereo not drawn) [compound 428, 2-methoxy-N-[5-(1,2,3,4-tetrahydro-1-naphthalenylamino)-1,3,4-thiadiazol-2-yl]benzamide] yielded an inhibition at 25 µM of 23.3%.

As to `O=C(Nc1nnc(NC2CCCCCC2)s1)c1ccc(Cl)c(Cl)c1` [compound 418, 3,4-dichloro-N-[5-(cycloheptylamino)-1,3,4-thiadiazol-2-yl]benzamide], 25 µM produced 24.4% inhibition.

For the compound `NS(=O)(=O)c1ccc(CCNc2nnc(NC(=O)CCCCCl)s2)cc1` [compound 390, N-(5-{[4-(aminosulfonyl)phenethyl]amino}-1,3,4-thiadiazol-2-yl)-5-chloropentanamide], 25 µM produced 26.3% inhibition.

Compound `O=C(Nc1nnc(NCCc2c[nH]c3ccccc23)s1)c1ccc([N+](=O)[O-])o1` [compound 47, N-(5-{[2-(1H-indol-3-yl)ethyl]amino}-1,3,4-thiadiazol-2-yl)-5-nitro-2-furamide] gave an inhibition at 25 µM of 81.6%.

As to `O=C(Nc1nnc(NCCCCc2ccccc2)s1)c1ccc(I)cc1` [compound 59, 4-iodo-N-{5-[(4-phenylbutyl)amino]-1,3,4-thiadiazol-2-yl}benzamide], the inhibition at 25 µM is 74.6%.

For `O=C(/C=C/c1ccccc1)Nc1nnc(NCCN2CCOCC2)s1` [compound 220, (E)-N-{5-[(2-morpholinoethyl)amino]-1,3,4-thiadiazol-2-yl}-3-phenyl-2-propenamide], the inhibition at 25 µM worked out at 43.6%.

On to `CCOc1ccc2ccccc2c1C(=O)Nc1nnc(NCCSCC)s1` [compound 318, 2-ethoxy-N-(5-{[2-(ethylsulfanyl)ethyl]amino}-1,3,4-thiadiazol-2-yl)-1-naphthamide], for which the inhibition at 25 µM is 33.6%.

In turn, `CCOc1ccc2ccccc2c1C(=O)Nc1nnc(NCc2ccc3c(c2)OCO3)s1` [compound 43, N-{5-[(1,3-benzodioxol-5-ylmethyl)amino]-1,3,4-thiadiazol-2-yl}-2-ethoxy-1-naphthamide] returned an inhibition at 25 µM of 83.9%.

The compound `O=C(Nc1nnc(NCc2ccc3c(c2)OCO3)s1)c1c(Cl)cccc1Cl` [compound 96] came in with an inhibition at 25 µM of 65.9%.

As to `CCOc1ccc2ccccc2c1C(=O)Nc1nnc(NCCNC(C)=O)s1` [compound 463, N-(5-{[2-(acetylamino)ethyl]amino}-1,3,4-thiadiazol-2-yl)-2-ethoxy-1-naphthamide], the inhibition at 25 µM was determined as 20.3%.

In turn, `CCCCCCCCCCCNc1nnc(NC(=O)c2ccc([N+](=O)[O-])o2)s1` [compound 60, 5-nitro-N-[5-(undecylamino)-1,3,4-thiadiazol-2-yl]-2-furamide] came in with an inhibition at 25 µM of 74.5%.

On to `O=C(Nc1nnc(NCCc2c[nH]c3ccccc23)s1)c1c(Cl)cccc1Cl` [compound 255, 2,6-dichloro-N-(5-{[2-(1H-indol-3-yl)ethyl]amino}-1,3,4-thiadiazol-2-yl)benzamide], for which at 25 µM the inhibition was 39.9%.

As to `CCCCCCCCCCCNc1nnc(NC(=O)c2ccc(Br)cc2)s1` [compound 194, 4-bromo-N-[5-(undecylamino)-1,3,4-thiadiazol-2-yl]benzamide], the inhibition at 25 µM came to 46.8%.

As to `O=C(Nc1nnc(NCCC(c2ccccc2)c2ccccc2)s1)c1ccc2c(c1)C(=O)OC2=O` [compound 13, N-{5-[(3,3-diphenylpropyl)amino]-1,3,4-thiadiazol-2-yl}-1,3-dioxo-1,3-dihydro-2-benzofuran-5-carboxamide], testing at 25 µM gave an inhibition of 99.3%.

As to `CCCCCCCC/C=C/CCCCCCCC(=O)Nc1nnc(NCCNC(C)=O)s1` [compound 123, (E)-N-(5-{[2-(acetylamino)ethyl]amino}-1,3,4-thiadiazol-2-yl)-9-octadecenamide], the inhibition at 25 µM is 59.2%.

As to `O=C(Nc1nnc(NCCc2c[nH]c3ccccc23)s1)c1ccc(Cl)c(Cl)c1` [compound 295, 3,4-dichloro-N-(5-{[2-(1H-indol-3-yl)ethyl]amino}-1,3,4-thiadiazol-2-yl)benzamide], the inhibition at 25 µM is 35.4%.
